Laboratory results: US7855213B2 (AstraZeneca AB, priority 2006, dated 2010)
Where a name gives a salt, the structure may show the parent alone.

These molecules were tested against T1, human β-Secretase (Homo sapiens, UniProt P56817) (assay: TR-FRET assay).
T1 construct: The soluble part of the human β-Secretase (AA 1-AA 460) was cloned; made in house
T1 sequence (P56817 22-460): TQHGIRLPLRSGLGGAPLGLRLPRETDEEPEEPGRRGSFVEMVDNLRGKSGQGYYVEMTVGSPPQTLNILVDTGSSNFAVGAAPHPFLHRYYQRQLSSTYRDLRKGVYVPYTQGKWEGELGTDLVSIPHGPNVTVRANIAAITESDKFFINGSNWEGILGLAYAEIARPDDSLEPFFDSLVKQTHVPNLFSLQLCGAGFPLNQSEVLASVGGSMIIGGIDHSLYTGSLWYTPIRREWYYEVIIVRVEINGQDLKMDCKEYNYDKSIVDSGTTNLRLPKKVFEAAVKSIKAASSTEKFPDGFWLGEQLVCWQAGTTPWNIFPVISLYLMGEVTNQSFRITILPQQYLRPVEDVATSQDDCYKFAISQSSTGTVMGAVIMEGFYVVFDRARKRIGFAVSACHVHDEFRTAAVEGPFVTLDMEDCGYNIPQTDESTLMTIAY
Type: biochemical
For `COc1ccc(C2(c3ccc(O)c(-c4cncnc4)c3)N=C(N)c3ccccc32)cc1` (centres unmarked) [Example 8, 4-[3-Amino-1-(4-methoxy-phenyl)-1H-isoindol-1-yl]-2-pyrimidin-5-yl-phenol trifluoroacetate], the IC50 was 40 nM.
For `CC1(c2cccc(-c3cncnc3)c2)N=C(N)c2ccccc21` (centres unmarked) [Example 95, 1-Methyl-1-(3-pyrimidin-5-ylphenyl)-1H-isoindol-3-amine acetate], the IC50 was 2010 nM.
`Cc1nn(C)c(Cl)c1S(=O)(=O)Oc1cccc(C2(c3cc(Cl)nc(Cl)c3)N=C(N)c3ccccc32)c1` (centres unmarked) [Example 131, 3-[3-Amino-1-(2,6-dichloropyridin-4-yl)-1H-isoindol-1-yl]phenyl 5-chloro-1,3-dimethyl-1H-pyrazole-4-sulfonate] was tested, and the IC50 was 1070 nM.
In the case of `CS(=O)(=O)Oc1ccc(C2(c3cccc(-c4cccnc4)c3)N=C(N)c3ccccc32)cc1` (centres unmarked) [Example 35, Methanesulfonic acid 4-[3-amino-1-(3-pyridin-3-yl-phenyl)-1H-isoindol-1-yl]-phenyl ester trifluoroacatete], the IC50 is reported as 950 nM.
For `NC1=NC(c2ccncc2)(c2ccc(F)c(-c3cccnc3F)c2)c2ccccc21` (centres unmarked) [Example 105, 1-[4-Fluoro-3-(2-fluoropyridin-3-yl)phenyl]-1-pyridin-4-yl-1H-isoindol-3-amine], the IC50 was 29 nM.
For `NC1=NC(c2cccc(-c3cccnc3F)c2)(c2ccc3c(c2)OCO3)c2ccccc21` (centres unmarked) [Example 31, 3-Benzo[1,3]dioxol-5-yl-3-[3-(2-fluoropyridin-3-yl)-phenyl]-3H-isoindol-1-ylamine trifluoroacetate], the IC50 was 768 nM.
`NC1=NC(c2ccncc2)(c2ccc(F)c(-c3cncnc3)c2)c2ccccc21` (centres unmarked) [Example 68, 1-(4-Fluoro-3-pyrimidin-5-ylphenyl)-1-pyridin-4-yl-1H-isoindol-3-amine 0.5 acetate] showed an IC50 of 81 nM.
Molecule `COc1cc(OS(C)(=O)=O)cc(-c2cccc(C3(c4ccc5c(c4)OCO5)N=C(N)c4ccccc43)c2)c1` (centres unmarked) [Example 34, Methanesulfonic acid 3′-(3-amino-1-benzo[1,3]dioxol-5-yl-1H-isoindol-1-yl)-5-methoxy-biphenyl-3-yl ester trifluoroacetate] has an IC50 of 1090 nM.
`CC(C)C1(c2cccc(-c3cncnc3)c2)N=C(N)c2ccccc21` (centres unmarked) [Example 97, 1-Isopropyl-1-(3-pyrimidin-5-ylphenyl)-1H-isoindol-3-amine acetate] was tested, and the IC50 was 1000 nM.
Work on `NC1=NC(c2ccncc2)(c2cccc(-c3cccnc3)c2)c2cc(F)ccc21` (centres unmarked) [Example 83, 6-Fluoro-1-pyridin-4-yl-1-(3-pyridin-3-ylphenyl)-1H-isoindol-3-amine] yielded an IC50 of 75 nM.
With `NC1=NC(c2cccc(-c3cncnc3)c2)(c2ccncc2F)c2ccccc21` (centres unmarked) [Example 72, 1-(3-Fluoropyridin-4-yl)-1-(3-pyrimidin-5-ylphenyl)-1H-isoindol-3-amine 1.25 acetate] the IC50 was 250 nM.
Molecule `COc1ccc(C#N)c(-c2cccc(C3(C4CC4)N=C(N)c4ccccc43)c2)c1` (centres unmarked) [Example 91, 3′-(3-Amino-1-cyclopropyl-1H-isoindol-1-yl)-5-methoxybiphenyl-2-carbonitrile acetate] has an IC50 of 413 nM.
`N#Cc1ccc(C2(c3cccc(-c4cccnc4F)c3)N=C(N)c3ccccc32)cc1` (centres unmarked) [Example 65, 4-{3-Amino-1-[3-(2-fluoropyridin-3-yl)phenyl]-1H-isoindol-1-yl}benzonitrile] was tested, and the IC50 was 400 nM.
`CC1(c2cccc(-c3cc(Cl)cc(Cl)c3)c2)N=C(N)c2ccccc21` (centres unmarked) [Example 94, 1-(3′,5′-Dichlorobiphenyl-3-yl)-1-methyl-1H-isoindol-3-amine hydrochloride] was tested, and the IC50 was 880 nM.
Molecule `NC1=NC(c2ccc(F)c(-c3cncnc3)c2)(c2ccncc2F)c2ccccc21` (centres unmarked) [Example 74, 1-(3-Fluoropyridin-4-yl)-1-(4-fluoro-3-pyrimidin-5-ylphenyl)-1H-isoindol-3-amine 1.25 acetate] has an IC50 of 150 nM.
`NC1=NC(c2ccc(C(F)(F)F)cc2)(c2cccc(-c3cccnc3F)c2)c2ccccc21` (centres unmarked) [Example 66, 1-[3-(2-Fluoropyridin-3-yl)phenyl]-1-[4-(trifluoromethyl)phenyl]-1H-isoindol-3-amine] gave an IC50 of 520 nM.
`NC1=NC(c2cccc(-c3cccnc3F)c2)(c2ccnc(F)c2)c2ccccc21` (centres unmarked) [Example 117, 1-(2-Fluoropyridin-4-yl)-1-[3-(2-fluoropyridin-3-yl)phenyl]-1H-isoindol-3-amine] gave an IC50 of 100 nM.
`COc1ccc(F)c(-c2cccc(C3(c4ccncc4F)N=C(N)c4ccccc43)c2)c1` (centres unmarked) [Example 99, 1-(2′-Fluoro-5′-methoxybiphenyl-3-yl)-1-(3-fluoropyridin-4-yl)-1H-isoindol-3-amine] was tested, and the IC50 was 220 nM.
In the case of `NC1=NC(c2ccc(C(F)(F)F)nc2)(c2cccc(-c3cncnc3)c2)c2ccccc21` (centres unmarked) [Example 130, 1-(3-Pyrimidin-5-ylphenyl)-1-[6-(trifluoromethyl)pyridin-3-yl]-1H-isoindol-3-amine 0.66 acetate], the IC50 is reported as 1300 nM.
With `NC1=NC(c2cccc(-c3cncnc3)c2)(C2CC2)c2ccccc21` (centres unmarked) [Example 92, 1-Cyclopropyl-1-(3-pyrimidin-5-ylphenyl)-1H-isoindol-3-amine acetate] the IC50 was 270 nM.
`NC1=NC(c2ccc(C(F)(F)F)cc2)(c2cccc(-c3cncnc3)c2)c2ccccc21` (centres unmarked) [Example 60, 1-(3-Pyrimidin-5-ylphenyl)-1-[4-(trifluoromethyl)phenyl]1H-isoindol-3-amine 0.25 acetate] was tested, and the IC50 was 570 nM.
`COc1ccc(C2(c3cccc(-c4cncnc4)c3)N=C(N)c3ccccc32)cc1C` (centres unmarked) [Example 23, 3-(4-Methoxy-3-methyl-phenyl)-3-(3-pyrimidin-5-yl-phenyl)-3H-isoindol-1-ylamine trifluoroacetate] gave an IC50 of 88 nM.
With `COc1cccc(-c2cccc(C3(c4ccncc4F)N=C(N)c4ccccc43)c2)c1F` (centres unmarked) [Example 100, 1-(2′-Fluoro-3′-methoxybiphenyl-3-yl)-1-(3-fluoropyridin-4-yl)-1H-isoindol-3-amine] the IC50 was 220 nM.
With `COc1ccc(C2(c3cccc(-c4cncnc4)c3)N=C(N)c3ccccc32)cc1` (centres unmarked) [Example 13, 3-(4-Methoxy-phenyl)-3-(3-pyrimidin-5-yl-phenyl)-3H-isoindol-1-ylamine trifluoroacetate] the IC50 was 106 nM.
`COc1cc(C2(c3cccc(-c4cccnc4F)c3)N=C(N)c3ccccc32)ccn1` (centres unmarked) [Example 119, 1-[3-(2-Fluoropyridin-3-yl)phenyl]-1-(2-methoxypyridin-4-yl)-1H-isoindol-3-amine] was tested, and the IC50 was 110 nM.
Work on `N#Cc1cncc(-c2cccc(C3(c4ccncc4)N=C(N)c4ccccc43)c2)c1` (centres unmarked) [Example 77, 5-[3-(3-Amino-1-pyridin-4-yl-1H-isoindol-1-yl)phenyl]nicotinonitrile acetate] yielded an IC50 of 150 nM.
`COc1ncc(C2(c3cccc(-c4cccnc4F)c3)N=C(N)c3ccccc32)cn1` (centres unmarked) [Example 107, 1-[3-(2-Fluoropyridin-3-yl)phenyl]-1-(2-methoxypyrimidin-5-yl)-1H-isoindol-3-amine] gave an IC50 of 440 nM.
`NC1=NC(c2ccc(C(F)(F)F)cc2)(c2cccc(-c3cncc(F)c3)c2)c2ccccc21` (centres unmarked) [Example 59, 1-[3-(5-Fluoropyridin-3-yl)phenyl]-1-[4-(trifluoromethyl)phenyl]-1H-isoindol-3-amine 0.25 acetate] showed an IC50 of 630 nM.
Molecule `COc1cccc(-c2cccc(C3(c4ccc5c(c4)OCCO5)N=C(N)c4ccccc43)c2)c1` (centres unmarked) [Example 27, 3-(2,3-Dihydrobenzo[b][1,4]dioxin-6-yl)-3-(3′-methoxybiphenyl-3-yl)-3H-isoindol-1-amine trifluoroacetate] has an IC50 of 1060 nM.
